Like-named read-outs stand apart in the source and are kept apart here.
Legend:
α-glucosidase [1] = target: T1, α-glucosidase (Saccharomyces cerevisiae, UniProt P53341); test: biochemical; type: biochemical; conditions: for anti-α-glucosidase activity in words: in comparison to acarbose; for decrease of inhibitory activity relative to compound 9g: replacement or removal of 4-OH of 9g
T1 construct: purchased Sigma-Aldrich
Method: Yeast form of α-glucosidase (EC3.2.1.20, Saccharomyces cerevisiae, 20 U mg^−1) and p-nitrophenyl glucopyranoside as substrate were purchased from Sigma-Aldrich. […] IC50 values were calculated by the percentage of enzyme inhibition and non-linear regression curve using the logit method.

α-glucosidase [2] = target: α-glucosidase; design: method as in PMID 28110817; conditions: Fig. 1, template B study; read-out: IC50 against α-glucosidase; cited from earlier work
α-glucosidase [3] = conditions: read-out: IC50 against α-glucosidase; Fig. 1, template A study; cited from earlier work
α-glucosidase [4] = test: Literature α-glucosidase inhibition of quinoline template A; type: biochemical; conditions: template A vs acarbose of that study
α-glucosidase [5] = target: T1, α-glucosidase; test: Enzyme kinetics study for α-glucosidase inhibition; type: biochemical
Method: The 20 μL of α-glucosidase solution (1 U mL^−1) was incubated with different concentrations of compound 9g (0, 2.25, 4.5, and 9 μM) for 15 min at 30 °C. After that, the enzymatic reaction was started by adding different concentrations of p-nitrophenyl glucopyranoside (substrate, 1–4 mM), and change in absorbance was measured for 20 min at 405 nm by spectrophotometer (Gen5, Power Wave xs2, BioTek, America).

[6] = yeast α-glucosidase, p-nitrophenyl glucopyranoside substrate, pH 6.8, 37 °C, mean ± SD, read-out: IC50 against α-glucosidase

T1 sequence (P53341 whole entry): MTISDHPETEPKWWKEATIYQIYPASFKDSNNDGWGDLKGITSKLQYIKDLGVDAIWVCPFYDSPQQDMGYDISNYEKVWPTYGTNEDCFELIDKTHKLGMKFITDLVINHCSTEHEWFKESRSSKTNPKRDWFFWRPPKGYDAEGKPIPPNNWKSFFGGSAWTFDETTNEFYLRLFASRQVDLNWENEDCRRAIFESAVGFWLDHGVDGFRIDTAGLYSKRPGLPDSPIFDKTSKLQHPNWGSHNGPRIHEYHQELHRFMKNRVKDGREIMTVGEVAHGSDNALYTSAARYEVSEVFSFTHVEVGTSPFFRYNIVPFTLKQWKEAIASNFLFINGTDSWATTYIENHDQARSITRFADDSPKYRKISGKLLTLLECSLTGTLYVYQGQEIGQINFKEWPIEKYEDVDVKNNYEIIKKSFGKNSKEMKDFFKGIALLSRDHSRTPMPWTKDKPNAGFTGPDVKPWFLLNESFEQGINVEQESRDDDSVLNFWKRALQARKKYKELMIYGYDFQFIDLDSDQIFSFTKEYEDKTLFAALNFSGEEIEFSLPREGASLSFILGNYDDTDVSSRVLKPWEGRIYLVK

| Structure (SMILES) | anti-α-glucosidase activity in words (α-glucosidase [1]) | IC50 (α-glucosidase [1]; [6]) [µM] | melting point [°C] | other results |
| --- | --- | --- | --- | --- |
| O=C(CSc1nc2ccccc2cc1-c1nc2ccccc2c(=O)[nH]1)Nc1ccc([N+](=O)[O-])cc1 [9m, N-(4-Nitrophenyl)-2-{[3-(4-oxo-3,4-dihydroquinazolin-2-yl)quinolin-2-yl]thio}acetamide] | potent members | 52 ± 1.4 | 217 to 219 | – |
| Cc1cccc(C)c1NC(=O)CSc1nc2ccccc2cc1-c1nc2ccccc2c(=O)[nH]1 [9d, N-(2,6-Dimethylphenyl)-2-{[3-(4-oxo-3,4-dihydroquinazolin-2-yl)quinolin-2-yl]thio}acetamide] | – | > 750 | 220 to 222 | – |
| Cc1ccc(CNC(=O)CSc2nc3ccccc3cc2-c2nc3ccccc3c(=O)[nH]2)cc1 [9o, N-(4-Methylbenzyl)-2-{[3-(4-oxo-3,4-dihydroquinazolin-2-yl)quinolin-2-yl]thio}acetamide] | – | > 750 | 202 to 204 | – |
| O=C(CSc1nc2ccccc2cc1-c1nc2ccccc2c(=O)[nH]1)Nc1ccc(Br)cc1 [9l, N-(4-Bromophenyl)-2-{[3-(4-oxo-3,4-dihydroquinazolin-2-yl)quinolin-2-yl]thio}acetamide] | eradicated inhibitory activity | > 750 | 208 to 210 | – |
| O=C(CSc1nc2ccccc2cc1-c1nc2ccccc2c(=O)[nH]1)Nc1cccc(Cl)c1 [9j, N-(3-Chlorophenyl)-2-{[3-(4-oxo-3,4-dihydroquinazolin-2-yl)quinolin-2-yl]thio}acetamide] | potent members | 53.4 ± 2.3 | 212 to 214 | – |
| O=C(CSc1nc2ccccc2cc1-c1nc2ccccc2c(=O)[nH]1)NCc1ccc(F)cc1 [9p, N-(4-Fluorobenzyl)-2-{[3-(4-oxo-3,4-dihydroquinazolin-2-yl)quinolin-2-yl]thio}acetamide] | – | > 750 | 205 to 207 | – |
| Cc1ccc(NC(=O)CSc2nc3ccccc3cc2-c2nc3ccccc3c(=O)[nH]2)cc1 [9b, 2-{[3-(4-Oxo-3,4-dihydroquinazolin-2-yl)quinolin-2-yl]thio}-N-(p-tolyl)acetamide] | – | > 750 | 203 to 205 | – |
| O=C(CSc1nc2ccccc2cc1-c1nc2ccccc2c(=O)[nH]1)NCc1ccccc1 [9n, N-Benzyl-2-{[3-(4-oxo-3,4-dihydroquinazolin-2-yl)quinolin-2-yl]thio}acetamide] | – | > 750 | 201 to 203 | – |
| O=c1[nH]c(-c2ccc(Cl)cc2)nc2ccccc12 [Compound B] | – | – | – | IC50 (α-glucosidase [2]): 12.5 ± 0.1 µM |
| O=C(CSc1nc2ccccc2cc1-c1nc2ccccc2c(=O)[nH]1)Nc1ccc(Cl)cc1 [9k, N-(4-Chlorophenyl)-2-{[3-(4-oxo-3,4-dihydroquinazolin-2-yl)quinolin-2-yl]thio}acetamide] | potent members | 40.1 ± 1.2 | 209 to 211 | – |
| Cc1cccc(NC(=O)CSc2nc3ccccc3cc2-c2nc3ccccc3c(=O)[nH]2)c1C [9c, N-(2,3-Dimethylphenyl)-2-{[3-(4-oxo-3,4-dihydroquinazolin-2-yl)quinolin-2-yl]thio}acetamide] | – | > 750 | 208 to 210 | – |
| O=C(O)c1ccc2ccccc2n1 [Compound A] | – | – | – | IC50 (α-glucosidase [3]): 9.1 ± 2.3 µM; fold more potent than acarbose (α-glucosidase [4]): 7.3 fold |
| O=C(CSc1nc2ccccc2cc1-c1nc2ccccc2c(=O)[nH]1)Nc1ccccc1 [9a, 2-{[3-(4-Oxo-3,4-dihydroquinazolin-2-yl)quinolin-2-yl]thio}-N-phenylacetamide] | potent members | 25.8 ± 0.6 | 200 to 202 | decrease of inhibitory activity relative to compound 9g (α-glucosidase [1]): 2.8 fold |
| O=C(CSc1nc2ccccc2cc1-c1nc2ccccc2c(=O)[nH]1)Nc1ccc(O)cc1 [9g, N-(4-Hydroxyphenyl)-2-{[3-(4-oxo-3,4-dihydroquinazolin-2-yl)quinolin-2-yl]thio}acetamide] | potent members | 9 ± 0.3 | 210 to 212 | type of inhibition (α-glucosidase [5]; Lineweaver–Burk plots): competitive; Ki (α-glucosidase [5]; secondary re-plot of Lineweaver–Burk plots, 0, 2.25, 4.5, 9.0 μM inhibitor): 7 µM; fold more potent than the most potent compound among template compounds C (α-glucosidase [1]; comparison with literature compounds C): 8.8 fold |
| CCc1ccc(NC(=O)CSc2nc3ccccc3cc2-c2nc3ccccc3c(=O)[nH]2)cc1 [9e, N-(4-Ethylphenyl)-2-{[3-(4-oxo-3,4-dihydroquinazolin-2-yl)quinolin-2-yl]thio}acetamide] | – | > 750 | 208 to 210 | – |
| O=C(CSc1nc2ccccc2cc1-c1nc2ccccc2c(=O)[nH]1)Nc1ccc(F)cc1 [9i, N-(4-Fluorophenyl)-2-{[3-(4-oxo-3,4-dihydroquinazolin-2-yl)quinolin-2-yl]thio}acetamide] | eradicated inhibitory activity | > 750 | 206 to 208 | – |
| COc1ccc(NC(=O)CSc2nc3ccccc3cc2-c2nc3ccccc3c(=O)[nH]2)cc1 [9f, N-(4-Methoxyphenyl)-2-{[3-(4-oxo-3,4-dihydroquinazolin-2-yl)quinolin-2-yl]thio}acetamide] | potent members | – | 203 to 205 | IC50 (α-glucosidase [1]): 37.7 ± 2.9 µM; decrease of inhibitory activity relative to compound 9g (α-glucosidase [1]): 4.1 fold |
| O=C(CSc1nc2ccccc2cc1-c1nc2ccccc2c(=O)[nH]1)Nc1ccccc1F [9h, N-(2-Fluorophenyl)-2-{[3-(4-oxo-3,4-dihydroquinazolin-2-yl)quinolin-2-yl]thio}acetamide] | eradicated inhibitory activity | > 750 | 209 to 211 | – |
